From patent US9416144B2, “Benzoxazine oxazolidinone compound, preparation method and application thereof” (priority 2012, dated 2016)
In brackets after ≈: the same amount, converted by molar mass. Several values for one entry are separate records, joined by “and”; a condition that tells them apart may be missing. Identical values can stand only once. Like-named read-outs stand apart in the source and are kept apart here.

Legend:
[1] = test system: Staphylococcus epidermidis resistant strains (5 strains); assay: In vitro antibacterial activity, MIC by agar double dilution method; type: cell-based; conditions: clinical isolates
Text: (§1) Experimental method: The agar double dilution method (Antimicrob. Agents and Chemother, 40, 1996, 720-726) was used to determine the minimum inhibitory concentration (MIC) of the series of compounds of the invention and the positive control drug linezolid for the test strains. The multipoint inoculation system (Denley A400) was employed to inoculate the bacteria on the agar plate surface with different concentrations of drugs; inoculation amount on each point was about 10^6 CFU/mL. The plates were incubated at 35° C. for 16 hrs before the results were observed. The lowest drug concentration contained in the Petri dish without bacterial growth was used as the minimum inhibitory concentration (MIC value) of the drug fir that strain.
(§2) Test strains: All the test strains were clinically isolated pathogens which were collected from the Nanjing region, and they were re-identified by routine methods before use. 31 strains of the clinically isolated pathogens were chosen, including 6 strains of Enterococcus, 5 Staphylococcus aureus sensitive strains; 5 Staphylococcus epidermidis sensitive strains; 6 Staphylococcus aureus resistant strains; 5 Staphylococcus epidermidis resistant strains; and 4 Streptococcus pneumoniae resistant strains.
(§3) Compounds to be tested were first added 2 ml of DMSO to help them fully dissolved, then added sterile double distilled water to the desired concentration; to all the Petri dish with added drug liquid were added 20 mL MIT medium which was heat-melted to be liquid-like, to make the final drug concentration in the Petri dish to be 64, 32, 16, 8, 4, 2, 1, 0.5, 0.25, 0.125, 0.0625, and 0.031 μg/mL.
(§4) The positive control group was LZ (linezolid, brand name Zyvox, approved by the FDA in 2000 to be firstly sold in the United States, which is the first and also the only one of oxazolidinone antibacterial drugs allowed to enter clinical application).

[2] = test system: Staphylococcus aureus resistant strains (6 strains); assay: as above; type: cell-based; conditions: clinical isolates
Text: as §1, §2, §3, §4

[3] = test system: Enterococcus (6 strains); assay: as above; type: cell-based; conditions: clinical isolates, 35° C. 16 hrs
Text: as §1, §2, §3, §4

[4] = test system: Staphylococcus aureus sensitive strains (5 strains); assay: as above; type: cell-based; conditions: clinical isolates
Text: as §1, §2, §3, §4

[5] = test system: Streptococcus pneumoniae resistant strains (4 strains); assay: as above; type: cell-based; conditions: clinical isolates
Text: as §1, §2, §3, §4

[6] = test system: Staphylococcus epidermidis sensitive strains (5 strains); assay: as above; type: cell-based; conditions: clinical isolates
Text: as §1, §2, §3, §4

[7] = In vivo pharmacokinetic assays in rats (intragastric and intravenous), plasma Compound 14 by LC-MS/MS; design: species or system SD rats; conditions: rats
[8] = as above; design: species or system SD rats
Protocol: Two routes of administration (intragastric administration and intravenous injection) were employed.
(§5) Intragastric administration: Four healthy SD rats, male, weight 200-250 g, were dosed 15 mg/kg; the delivery volume was 10 ml/kg, prepared with 0.5% CMC-Na. The rats were fasted for 12 hrs before administration, free water-drinking. 0.3 ml of venous blood was taken from the posterior venous plexus of rats to heparinized tubes at 0.25, 0.5, 1.0, 2.0, 3.0, 4.0, 5.0, 7.0, 9.0, 24, and 48 hrs after administration, centrifuged at 3500 rpm for 10 mins to separate the plasma, which was then stored at −20° C. for test.
as §5, with “Intravenous injection: Two” for “Intragastric administration: Four”, “200˜250” for “200-250”, “5” for “15”, “DMSO, Tween 80 and deionized water.” for “0.5% CMC-Na.”, “5 min, 15 min, and” for “0.25,”
The concentration of Compound 14 in plasma was determined by liquid chromatography tandem mass spectrometry.
In accordance with the above experimental methods, the inventor has determined the in vivo pharmacokinetic properties of phosphate (ester) disodium salt 37 of Compound 14 in rats.

[9] = male, SD, rat, in vivo, iv, 5 mg/kg, 5 mg/kg Compound 14 intravenous injection, average value
[10] = male, SD, rat, in vivo, po, 15 mg/kg, 15 mg/kg Compound 14 intragastric, average value
[11] = male, SD, rat, in vivo, po, 15 mg/kg, 15 mg/kg Compound 14 intragastric, individual animals No. 15-18
[12] = 5 mg/kg Compound 14 intravenous injection, individual animals No. 19-21, 5 mg/kg
[13] = 15 mg/kg Compound 14 intragastric, individual animals No. 15-18, 15 mg/kg

SMILES: O=C1O[C@@H](CO)[C@@H]2COc3cc(-c4ccc(C(O)CO)nc4)ccc3N12 (stereo partly drawn) [Compound 4, (3R,3aS)-7-(6-(1,2-dihydroxylethyl)pyridin-3-yl)-3-(hydroxylmethyl)-3a,4-dihydrobenzo[b]oxazolo[3,4-d][1,4]oxazin-1(3H)-one]
- melting point: 150 to 152 °C
- MIC [1]: 0.5 mg/L (≈ 1.4 µM)
- MIC [2]: 0.5 to 1 mg/L (≈ 1.4 to 2.79 µM)
- MIC [3]: 1 to 2 mg/L (≈ 2.79 to 5.58 µM)
- MIC [4]: 0.5 to 1 mg/L (≈ 1.4 to 2.79 µM)
- MIC [5]: 1 to 2 mg/L (≈ 2.79 to 5.58 µM)
- MIC [6]: 0.5 mg/L (≈ 1.4 µM)

SMILES: O=C1O[C@@H](CO)[C@@H]2COc3cc(-c4ccc(N5CCC(O)CC5)nc4)ccc3N12 [Compound 11, (3R,3aS)-3-(hydroxylmethyl)-7-(6-(4-hydroxylpiperidin-1-yl)pyridin-3-yl)-3a,4-dihydrobenzo[b]oxazolo[3,4-d][1,4]oxazin-1(3H)-one]
- melting point: > 198 °C
- MIC [1]: 8 mg/L (≈ 20.1 µM)
- MIC [2]: 4 mg/L (≈ 10.1 µM)
- MIC [3]: 16 mg/L (≈ 40.3 µM)
- MIC [4]: 2 to 4 mg/L (≈ 5.03 to 10.1 µM)
- MIC [5]: 2 to 8 mg/L (≈ 5.03 to 20.1 µM)
- MIC [6]: 2 to 4 mg/L (≈ 5.03 to 10.1 µM)

SMILES: CC(=O)c1ccc(-c2ccc3c(c2)OC[C@H]2[C@H](CO)OC(=O)N32)cn1 [Compound 13, (3R,3aS)-7-(6-acetylpyridin-3-yl)-3-(hydroxylmethyl)-3a,4-dihydrobenzo[b]oxazolo[3,4-d][1,4]oxazin-1(3H)-one]
- melting point: 199 to 201 °C
- MIC [1]: 4 to 8 mg/L (≈ 11.8 to 23.5 µM)
- MIC [2]: 2 to 4 mg/L (≈ 5.88 to 11.8 µM)
- MIC [3]: 2 mg/L (≈ 5.88 µM)
- MIC [4]: 2 to 4 mg/L (≈ 5.88 to 11.8 µM)
- MIC [5]: 8 to 16 mg/L (≈ 23.5 to 47 µM)
- MIC [6]: 4 mg/L (≈ 11.8 µM)

SMILES: CN1CC(c2ccc(-c3ccc4c(c3)OC[C@H]3[C@H](CO)OC(=O)N43)cn2)OC1=O (stereo partly drawn) [Compound 14, (3R,3aS)-3-(hydroxylmethyl)-7-(6-(3-methyl-2-oxazolidin-5-yl)pyridin-3-yl)-3a,4-dihydrobenzo[b]oxazolo[3,4-d][1,4]oxazin-1(3H)-one]
- AUC(0-inf) [7, 9]: 1.56 µg·h/mL
- half-life [7, 9]: 2.51 ± 0.92 h
- AUC0-t ([7]; male, SD, rat, in vivo, iv, 5 mg/kg, 5 mg/kg Compound 14 intravenous injection, average value, read-out: AUC0-t): 1.54 ± 0.054 µg·h/mL
- MRT ([7]; male, SD, rat, in vivo, iv, 5 mg/kg, 5 mg/kg Compound 14 intravenous injection, average value, read-out: MRT): 0.74 h
- AUC(0-inf) ([7]; male, SD, rat, in vivo, iv, 5 mg/kg, 5 mg/kg Compound 14 intravenous injection, individual animals No. 19-21): 1.6 µg·h/mL
- AUC0-t ([7]; male, SD, rat, in vivo, iv, 5 mg/kg, 5 mg/kg Compound 14 intravenous injection, individual animals No. 19-21, read-out: AUC0-t): 1.59 µg·h/mL
- MRT ([7]; male, SD, rat, in vivo, iv, 5 mg/kg, 5 mg/kg Compound 14 intravenous injection, individual animals No. 19-21, read-out: MRT): 0.61 h
- Vd ([7]; male, SD, rat, in vivo, iv, 5 mg/kg, 5 mg/kg Compound 14 intravenous injection, individual animals No. 19-21, read-out: Vss): 1.9 L/kg
- AUC(0-inf) [7, 10]: 2.17 µg·h/mL
- Cmax [7, 10]: 0.809 ± 0.267 µg/mL
- Tmax [7, 10]: 1 ± 0.71 h
- AUC0-t ([7]; male, SD, rat, in vivo, po, 15 mg/kg, 15 mg/kg Compound 14 intragastric, average value, read-out: AUC0-t): 2.07 ± 0.319 µg·h/mL
- MRT ([7]; male, SD, rat, in vivo, po, 15 mg/kg, 15 mg/kg Compound 14 intragastric, average value, read-out: MRT): 2.64 h
- half-life [7, 11]: 2.29 h
- AUC0-t ([7]; male, SD, rat, in vivo, po, 15 mg/kg, 15 mg/kg Compound 14 intragastric, individual animals No. 15-18, read-out: AUC0-t): 1.62 µg·h/mL
- MRT ([7]; male, SD, rat, in vivo, po, 15 mg/kg, 15 mg/kg Compound 14 intragastric, individual animals No. 15-18, read-out: MRT): 3.36 h
- AUC0-t [7, 12]: 1.49 µg·h/mL and 1.526 µg·h/mL
- AUC0-∞ [7, 12]: 1.51 µg·h/mL and 1.555 µg·h/mL
- CLz [7, 12]: 3.12 L/h/kg and 3.31 L/h/kg and 3.22 L/h/kg
- MRT [7, 12]: 0.79 h and 0.82 h
- Vss [7, 12]: 2.62 L/kg and 2.64 L/kg
- t1/2 [7, 12]: 1.62 h and 2.46 h and 3.45 h
- F (absolute bioavailability) ([7]; 15 mg/kg Compound 14 intragastric vs 5 mg/kg intravenous, dose corrected): 44%
- AUC0-t [8, 13]: 2.174 µg·h/mL and 2.095 µg·h/mL and 2.374 µg·h/mL
- AUC0-∞ [8, 13]: 2.29 µg·h/mL and 2.165 µg·h/mL and 2.44 µg·h/mL
- Cmax [8, 13]: 0.474 µg/mL and 0.766 µg/mL and 0.878 µg/mL and 1.117 µg/mL
- MRT [8, 13]: 2.93 h and 2.03 h and 2.23 h
- Tmax [8, 13]: 2.00 h and 0.50 h
- t1/2 [8, 13]: 1.64 h and 2.34 h and 1.45 h
- clearance ([8]; male, SD, rat, in vivo, 5 mg/kg Compound 14 intravenous injection, average value, read-out: CLz (plasma clearance) (converted)): 3.22 L/h/kg
- bioavailability ([8]; male, SD, rat, in vivo, 15 mg/kg, 15 mg/kg Compound 14 intragastric vs 5 mg/kg intravenous, dose corrected, read-out: F (absolute bioavailability)): 44.8%
- Vd ([8]; male, SD, rat, in vivo, iv, 5 mg/kg, 5 mg/kg Compound 14 intravenous injection, average value, read-out: Vss (distribution volume)): 2.39 ± 0.42 L/kg
- half-life [8, 10]: 1.93 ± 0.45 h
- AUC(0-inf) [8, 11]: 1.77 µg·h/mL
- MIC [1]: 0.25 to 1 mg/L (≈ 0.629 to 2.52 µM)
- MIC [2]: 0.5 to 1 mg/L (≈ 1.26 to 2.52 µM)
- MIC [3]: 1 to 2 mg/L (≈ 2.52 to 5.03 µM)
- MIC [4]: 0.5 to 1 mg/L (≈ 1.26 to 2.52 µM)
- MIC [5]: 1 mg/L (≈ 2.52 µM)
- MIC [6]: 0.25 to 0.5 mg/L (≈ 0.629 to 1.26 µM)
